Source: patent US20040002842A1, “Methods and systems for analyzing complex biological systems” (priority 2001, published 2004)

Tests used:
[1] = test system: Arabidopsis thaliana plants; test: SOA1 gene expression analysis (60mer microarray, 6200 genes) of herbicide-treated tissue; details: SOA1 profiles
[2] = test system: Saccharomyces cerevisiae wild type strain BY4743; test: AF1 combined gene expression and metabolite data (reactions, pathways, cluster analysis); type: cell-based
From the text: The data were then combined to determine the number of reactions showing an enzyme and at least one compound perturbed, and to determine the number of pathways having at least one enzyme and one perturbed compound perturbed. The results of the analysis are represented in Tables 16 and 17, and were difficult to interpret, illustrating that the ability to draw conclusions from compound mapping to pathways is limited when absent additional data. […] A coherent data set was created from data obtained from the four above-described drug compounds. The data were reduced by using principle components analysis and cluster analysis.

[3] = test system: Saccharomyces cerevisiae wild type strain BY4743; test: AF1 yeast metabolite analysis by GC-MS and LC-MS; type: cell-based; details: for # Compounds perturbed by treatment: 2×MIC, two hours
[4] = test system: Saccharomyces cerevisiae wild type strain BY4743; test: AF1 yeast gene expression analysis (microarray, KEGG pathway mapping); type: cell-based
Protocol: Saccharomyces cerevisiae wild type strain BY4743 was purchased from American Type Culture Center (ATCC, Manassas, Va.). The yeast strain was grown in YPD or SD media. H. […] The cultures started from fresh single colonies were grown in 1.0 ml YPD overnight at 30° C. […] The OD600 was adjusted to 1.0 with YPD media, then 2.0 ml of each was inoculated into three 250 ml flasks, each containing 50 ml of SD media. […] The cells were kept growing for another two hours, then collected by centrifugation at 4000 rpm for 5 minutes at 4° C. Pellets were washed once with ice-cold water, then were lyophilized overnight at 4° C. […] Tubes were vortexed for 30 seconds, then incubated for 10 minutes at room temperature (RT). […] Tubes were incubated for 10 minutes at RT. Samples were centrifuged for 20 minutes as before. Pellets were washed with 400 μl 70% ethanol and centrifuged for 10 minutes as before. The pellet was then dissolved in 100 μl nuclease-free water. RNA quality was determined using the Bioanalyzer 2100 and the RNA 6000 assay (Agilent Technologies, Palo Alto, Calif.) according to manufacturer's instructions. RNA concentrations were determined spectrophotometrically by measuring the absorption at 260 nm in an Ultrospec 2000 (Pharmacia Biotech, Piscataway, N.J.). […] Labeled cRNAs were evaluated using the RNA 6000 assay on the Agilent Bioanalyzer 2100. Labeled cRNA concentrations were determined spectrophotometrically by measuring the absorption at 260 nm in an Ultrospec 2000 (Pharmacia Biotech, Piscataway, N.J.). […] Each pair of samples to be hybridized were independently labeled and hybridized utilizing a fluor reversal for a total of two hybridizations per sample pair. The microarrays were scanned simultaneously in the Cy3 and Cy5 channels with Agilent's 48-slide, Dual Laser DNA Microarray Scanner (Agilent Technologies, Palo Alto, Calif.) at 10 μm resolution using default settings. Image Analysis Software (Version A.4.0.45, Agilent Technologies, Palo Alto, Calif.) was used for image analysis. Each feature was determined from an array's associated pattern file and a detection algorithm. Intensity values for each feature were determined after subtracting background derived from an average of negative control features. Features with unusual pixel intensity statistics (e.g., high non-uniformity, saturation in either channel, and the like) were excluded from downstream analyses. Data was loaded into the Rosetta RESOLVER database (Rosetta Inpharmatics Inc., Kirkland, Wash.) for storage and analysis. Data was evaluated after combining results from fluor reversal replicate hybridizations. The annotation of yeast ORFs was obtained from Proteome BIOKNOWLEDGE Library (Incyte Genomics, Palo Alto, Calif.). In AF1, two different technologies were utilized: gene expression analysis (for examination of mRNA expression) and metabolite analysis. […] As noted previously, existing metabolic databases may be helpful in practicing the methods and systems of the present invention, but many databases include limitations that make their use in data analysis and pathway mapping less than straightforward. […] This caveat to KEGG makes it difficult to pinpoint the correct pathway when attempting to link a gene to a specific pathway. The pathway score indicates how meaningful the mapping is, or how likely it is to be correctly indicative of the pathway involved in the perturbation under examination. The method provides a pathway score based on perturbation levels of genes and/or compounds and the information content of each gene and/or compound in the pathway, i.e., a pathway score indicates the extent to which other pathways are mapped to a gene/compound. For example, imagine that two genes are perturbed in a particular experiment.

In the case of `CCc1cccc(C)c1N(C(=O)CCl)C(C)COC` (stereo not shown) [Metolachlor], the “gene expression profile correlation with bifenox (r)” value [1] is reported as 0.499 and the “gene expression profile correlation with diquat (r)” value [1] is reported as 0.569.

In the case of `CC[C@@H]([C@H](C)O)n1ncn(-c2ccc(N3CCN(c4ccc(OC[C@@H]5CO[C@@](Cn6cncn6)(c6ccc(F)cc6F)C5)cc4)CC3)cc2)c1=O` [Posaconazole], the “Number of Reactions Having an Enzyme and at Least One Compound Perturbed, # Reactions” value [2] is reported as 0, the “# Compounds perturbed by treatment” value ([3]; P < 0.05) is reported as 3 and the “# Compounds perturbed by treatment” value ([3]; P < 0.1) is reported as 4. The “Fold Change: alanine” value ([3]; Platform GC) was 1.035, the “Fold Change: asparagine” value ([3]; Platform GC) was 0.145 and the “Fold Change: aspartic acid” value ([3]; Platform GC) was −0.071. The “Fold Change: campesterol” value ([3]; Platform GC) was 0, the “Fold Change: desmosterol” value ([3]; Platform GC) was 0 and the “Fold Change: disaccaride1” value ([3]; Platform GC) was 0.04733. The “Fold Change: disaccaride2” value ([3]; Platform GC) was 0.313, the “Fold Change: disaccaride3” value ([3]; Platform GC) was 0.3407 and the “Fold Change: ergosterol” value ([3]; Platform GC) was 0.808. The “Fold Change: fucosterol” value ([3]; Platform GC) was 6.722, the “Fold Change: glutamine” value ([3]; Platform GC) was 0.6439 and the “Fold Change: glycanopyrose” value ([3]; Platform GC) was 1.594. For the same compound, the “Fold Change: glycerol” value ([3]; Platform GC) was 0.1873, the “Fold Change: glycine” value ([3]; Platform GC) was 0.08267 and the “Fold Change: hexadecanoic acid” value ([3]; Platform GC) was −0.01867. For the same compound, the “Fold Change: iso citric acid” value ([3]; Platform GC) was 0.4, the “Fold Change: isoleucine” value ([3]; Platform GC) was 0.1023 and the “Fold Change: lanosterol” value ([3]; Platform GC) was 7.464. The “Fold Change: leucine” value ([3]; Platform GC) was 0.334, the “Fold Change: lysine” value ([3]; Platform GC) was 0.1586 and the “Fold Change: malic acid” value ([3]; Platform GC) was 0.2942. For the same compound, the “Fold Change: 2-ketobutyric acid” value ([3]; Platform nLC) was −0.9992, the “Fold Change: 2-ketoglutaric” value ([3]; Platform nLC) was 11.33 and the “Fold Change: 3-indolylacetonitri” value ([3]; Platform nLC) was −0.9998. The “Fold Change: 4-methylcatechol” value ([3]; Platform nLC) was 0, the “Fold Change: 4aminobutyrate/dimg” value ([3]; Platform nLC) was −0.008939 and the “Fold Change: 5hydroxyLtryptophan” value ([3]; Platform nLC) was 0. The “Fold Change: 6-benzylaminopurine” value ([3]; Platform nLC) was 0, the “Fold Change: DLaminoadipic acid” value ([3]; Platform nLC) was −0.9935 and the “Fold Change: abscisic acid” value ([3]; Platform nLC) was 0. The “Fold Change: aconitic acid” value ([3]; Platform nLC) was 1.874, the “Fold Change: adenine” value ([3]; Platform nLC) was 0 and the “Fold Change: adenosine” value ([3]; Platform nLC) was 128.3. For the same compound, the “Fold Change: alanine” value ([3]; Platform nLC) was 0.1091, the “Fold Change: allantoic acid” value ([3]; Platform nLC) was 0.3321 and the “Fold Change: allantoin” value ([3]; Platform nLC) was 5.97. For the same compound, the “Fold Change: anthranilic acid” value ([3]; Platform nLC) was 0, the “Fold Change: arginine” value ([3]; Platform nLC) was 0.1707 and the “Fold Change: argininosuccinate” value ([3]; Platform nLC) was 318.3. The “Fold Change: asparagine” value ([3]; Platform nLC) was 0.006865, the “Fold Change: aspartic” value ([3]; Platform nLC) was 0.305 and the “Fold Change: benzoic acid” value ([3]; Platform nLC) was 0. For the same compound, the “Fold Change: biotin” value ([3]; Platform nLC) was −0.9992, the “Fold Change: caffeic acid” value ([3]; Platform nLC) was −0.49 and the “Fold Change: catechol” value ([3]; Platform nLC) was 0. The “Fold Change: cinnamic acid” value ([3]; Platform nLC) was 0, the “Fold Change: citricanoic/itaconi” value ([3]; Platform nLC) was 0 and the “Fold Change: citrulline” value ([3]; Platform nLC) was 1160. For the same compound, the “Fold Change: coumaric acid” value ([3]; Platform nLC) was 0, the “Fold Change: cytidine” value ([3]; Platform nLC) was −0.9986 and the “Fold Change: cytosine” value ([3]; Platform nLC) was 0. For the same compound, the “Fold Change: decanoic acid” value ([3]; Platform nLC) was 0.1263, the “Fold Change: diaminopimelic acid” value ([3]; Platform nLC) was 0 and the “Fold Change: dihydrofolic acid” value ([3]; Platform nLC) was 0. For the same compound, the “Fold Change: estrone” value ([3]; Platform nLC) was 0, the “Fold Change: farnesol” value ([3]; Platform nLC) was 0 and the “Fold Change: folic acid” value ([3]; Platform nLC) was 0. For the same compound, the “Fold Change: fumaric/3m2oxobutan” value ([3]; Platform nLC) was −0.9997, the “Fold Change: gallic acid” value ([3]; Platform nLC) was 0.4414 and the “Fold Change: gibberellic” value ([3]; Platform nLC) was 0. The “Fold Change: glucosamine6PO4” value ([3]; Platform nLC) was −0.9951, the “Fold Change: glutamic/acetylseri” value ([3]; Platform nLC) was 0.3222 and the “Fold Change: glutamine/lysine” value ([3]; Platform nLC) was 0.09814. For the same compound, the “Fold Change: guanine” value ([3]; Platform nLC) was 0, the “Fold Change: guanosine” value ([3]; Platform nLC) was −0.993 and the “Fold Change: histidine” value ([3]; Platform nLC) was 0. The “Fold Change: homogentisic/uric” value ([3]; Platform nLC) was 0, the “Fold Change: hydrocortisone” value ([3]; Platform nLC) was 0 and the “Fold Change: hypoxanthine” value ([3]; Platform nLC) was 0.1751. The “Fold Change: indole3pyruvic acid” value ([3]; Platform nLC) was 0, the “Fold Change: inostol/glucos/sorb” value ([3]; Platform nLC) was −0.493 and the “Fold Change: isocitric/citric/qu” value ([3]; Platform nLC) was 1.711. For the same compound, the “Fold Change: jasmonic acid” value ([3]; Platform nLC) was 0, the “Fold Change: kinetin” value ([3]; Platform nLC) was 0 and the “Fold Change: lactic acid” value ([3]; Platform nLC) was 0.5987. The “Fold Change: lauric acid” value ([3]; Platform nLC) was 0.9833, the “Fold Change: leucine/isoleucine/” value ([3]; Platform nLC) was 0.03158 and the “Fold Change: luteolin” value ([3]; Platform nLC) was 0. For the same compound, the “Fold Change: malic acid” value ([3]; Platform nLC) was 0.3101, the “Fold Change: malonic acid” value ([3]; Platform nLC) was 0 and the “Fold Change: menthol*” value ([3]; Platform nLC) was 0.08121. For the same compound, the “Fold Change: methionine” value ([3]; Platform nLC) was 0, the “Fold Change: 4-aminobenzoic acid” value ([3]; Platform pLC) was 0 and the “Fold Change: 4-methylcatechol” value ([3]; Platform pLC) was 0. The “Fold Change: 4ambutyrate/dimglyc” value ([3]; Platform pLC) was 31.37, the “Fold Change: 5hydroxyLtryptophan” value ([3]; Platform pLC) was 0 and the “Fold Change: 6benzylaminopurine” value ([3]; Platform pLC) was 0. For the same compound, the “Fold Change: DL-aminoadipic acid” value ([3]; Platform pLC) was 1.685, the “Fold Change: abscisic acid” value ([3]; Platform pLC) was 0 and the “Fold Change: adenine” value ([3]; Platform pLC) was −0.0145. The “Fold Change: adenosine” value ([3]; Platform pLC) was 0, the “Fold Change: alanine/sarcosine” value ([3]; Platform pLC) was 0.1013 and the “Fold Change: allantoic acid” value ([3]; Platform pLC) was 0. For the same compound, the “Fold Change: anthranilic acid” value ([3]; Platform pLC) was 0, the “Fold Change: arginine” value ([3]; Platform pLC) was 0.03383 and the “Fold Change: argininosuccinate” value ([3]; Platform pLC) was 0. For the same compound, the “Fold Change: asparagine” value ([3]; Platform pLC) was 0.4302, the “Fold Change: aspartic acid” value ([3]; Platform pLC) was 0.3626 and the “Fold Change: biotin” value ([3]; Platform pLC) was 0. For the same compound, the “Fold Change: caffeine” value ([3]; Platform pLC) was 0, the “Fold Change: citric acid TME” value ([3]; Platform pLC) was 0 and the “Fold Change: citrulline” value ([3]; Platform pLC) was 0.1011. The “Fold Change: cytidine” value ([3]; Platform pLC) was 0, the “Fold Change: cytosine” value ([3]; Platform pLC) was 1135 and the “Fold Change: diaminopimelic acid” value ([3]; Platform pLC) was 0. The “Fold Change: dihydrofolic acid” value ([3]; Platform pLC) was 0, the “Fold Change: dipicolinic acid” value ([3]; Platform pLC) was 0 and the “Fold Change: folic acid” value ([3]; Platform pLC) was 0. For the same compound, the “Fold Change: glucosamine” value ([3]; Platform pLC) was 0, the “Fold Change: glucosamine6PO4” value ([3]; Platform pLC) was 0 and the “Fold Change: glutamate” value ([3]; Platform pLC) was 0.3769. The “Fold Change: glutamine/lysine” value ([3]; Platform pLC) was 0.303, the “Fold Change: glutathione” value ([3]; Platform pLC) was 0.0101 and the “Fold Change: guanosine” value ([3]; Platform pLC) was 0.04655. The “Fold Change: histidine” value ([3]; Platform pLC) was 0, the “Fold Change: hydrocortisone” value ([3]; Platform pLC) was 0 and the “Fold Change: hypoxanthine” value ([3]; Platform pLC) was 0.135. For the same compound, the “Fold Change: itaconic acid dimes” value ([3]; Platform pLC) was 0, the “Fold Change: kinetin” value ([3]; Platform pLC) was 0 and the “Fold Change: leucine/isoleucine/” value ([3]; Platform pLC) was 0.04937. For the same compound, the “Fold Change: luteolin” value ([3]; Platform pLC) was 0, the “Fold Change: mannitol” value ([3]; Platform pLC) was 0.3919 and the “Fold Change: methionine” value ([3]; Platform pLC) was −0.3997. For the same compound, the “# Transcripts perturbed by treatment” value ([4]; P < 0.05, 2×MIC, two hours) was 690 and the “Number of Pathways Affected by at Least One Gene, # Pathways” value ([4]; p < 0.05, KEGG mapping) was 69.
